The text below walks through data of patent US12180207B2 (ARRAY BIOPHARMA INC., priority 2018, dated 2024).

The target of experiment [1] is dephosphorylated FGFR1 (SEQ ID NO: 1, amino acids 458 to 765) (Homo sapiens (Human), UniProt P11362). Nature of the experiment: FGFR enzyme binding assay (HTRF tracer displacement), FGFR1. As to conditions: 5 nM dephosphorylated FGFR1, average of multiple determinations if made. The protocol:
(§1) The potency of compounds inhibiting human isoforms of FGFR kinase was determined using Life Technologies' Homogeneous Time Resolved Fluorescence (HTRF)-based binding assay technology. […] After a 60 minute incubation at 22° C., the extent of tracer displacement was determined using a PerkinElmer EnVision multimode plate reader via HTRF dual wavelength detection, and the percent of control (POC) was calculated using a ratiometric emission factor. One hundred POC was determined using no test compound, and 0 POC was determined in the presence of 1 μM of an appropriate control inhibitor.
(In general: Time-resolved FRET reads energy transfer from a long-lived donor to a nearby acceptor.)

In experiment [2] the target is phosphorylated FGFR3 (SEQ ID NO: 5, amino acids 449 to 759) (Homo sapiens (Human), UniProt P22607). Kind of experiment: FGFR enzyme binding assay (HTRF tracer displacement), FGFR3. As to conditions: 5 nM phosphorylated FGFR3, average of multiple determinations if made. The method, then: as §1
Chain of phosphorylated FGFR3 (SEQ ID NO: 5, amino acids 449 to 759) (P22607 449-759): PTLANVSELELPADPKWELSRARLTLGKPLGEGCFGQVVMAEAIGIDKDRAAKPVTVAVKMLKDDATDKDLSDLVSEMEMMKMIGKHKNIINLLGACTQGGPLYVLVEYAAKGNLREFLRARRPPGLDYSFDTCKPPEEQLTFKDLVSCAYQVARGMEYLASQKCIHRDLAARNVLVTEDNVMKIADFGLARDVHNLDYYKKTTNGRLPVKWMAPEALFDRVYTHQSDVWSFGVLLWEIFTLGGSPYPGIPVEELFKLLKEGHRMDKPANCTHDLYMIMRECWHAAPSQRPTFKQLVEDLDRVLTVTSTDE
Experiment [3] addresses recombinant human FGFR1 catalytic domain (amino acids 308-731) (Homo sapiens (Human), UniProt P11362). Nature of the experiment: FGFR1 enzyme activity assay (LanthaScreen TR-FRET). Type of experiment: biochemical. As to conditions: 20 min incubation at 22° C., average of multiple determinations if made, read-out: FGFR1 Enz FRET IC50. The protocol: FGFR1 kinase activity was measured by the Invitrogen LanthaScreen™ Assay technology which directly measures the amount of substrate phosphorylation by Time-resolved fluorescence energy transfer (TR-FRET) using a fluorescently-labeled peptide and Europium-labeled antibody. Briefly, […] His-tagged recombinant human FGFR1 catalytic domain (amino acids 308-731) (Life Technologies Cat. No. PR4660A) was incubated with 100 nM Alexa Fluor® 647-Poly-GT Peptide Substrate (Life Technologies Cat. No. PV5836) and […] ATP along with test compound in a buffer consisting of 250 mM HEPES, 25 mM MgCl2, 0.05% TritonX-100, pH 7.5, and 2% DMSO. […] After a 20 minutes incubation at 22° C., an equal volume of 2 nM LanthaScreen® Eu-PY20 Antibody (Life Technologies Cat. No. PV5691) and 10 mM EDTA was added to quench the kinase reaction and start the detection reaction. After an additional 60 minute incubation at 22° C., the reaction was measured using a PerkinElmer EnVision multimode plate reader via TR-FRET dual wavelength detection, and the percent of control (POC) calculated using a ratiometric emission factor. 100 POC was determined using no test compounds and 0 POC was determined using no enzyme. The POC values were fit to a 4-parameter logistic curve as a function of the concentration of the compound, and the IC50 value is the point where the curve crosses 50 POC.

The target in experiment [4] is recombinant human FGFR2 cytoplasmic domain (amino acids 403-822) (Homo sapiens (Human), UniProt P21802). Nature of the experiment: FGFR2 enzyme activity assay (LanthaScreen TR-FRET). Type of experiment: biochemical. As to conditions: 15 μM ATP, 20 min incubation at 22° C., average of multiple determinations if made, read-out: FGFR2 Enz FRET IC50. The method, then:
FGFR2 kinase activity was measured by the Invitrogen LanthaScreen™ Assay technology which directly measures the amount of substrate phosphorylation by TR-FRET using a fluorescently-labeled peptide and Europium-labeled antibody. Briefly, […] His-tagged recombinant human FGFR2 cytoplasmic domain (amino acids 403-822) (Life Technologies Cat. No. PR5332A) was incubated with 100 nM Alexa Fluor® 647-Poly-GT Peptide Substrate (Life Technologies Cat. No. PV5836) and 15 μM ATP along with test compound in a buffer consisting of 250 mM HEPES, 25 mM MgCl2, 0.05% TritonX-100, pH 7.5, and 2% DMSO. […] After a 20 minute incubation at 22° C., an equal volume of 2 nM LanthaScreen® Eu-PY20 Antibody (Life Technologies Cat. No. PV5691) and 10 mM EDTA were added to quench the kinase reaction and start the detection reaction. After an additional 60 minute incubation at 22° C., the reaction was measured using a PerkinElmer EnVision multimode plate reader via TR-FRET dual wavelength detection, and the percent of control (POC) calculated using a ratiometric emission factor. 100 POC was determined using no test compounds and 0 POC was determined using no enzyme. The POC values were fit to a 4-parameter logistic curve as a function of the concentration of the compound, and the IC50 value is the point where the curve crosses 50 POC.

Experiment [5] has as its target recombinant human FGFR3 (amino acids R397-T806) (Homo sapiens (Human), UniProt P22607). Nature of the experiment: FGFR3 enzyme activity assay (LanthaScreen TR-FRET). Type of experiment: biochemical. As to conditions: 25 μM ATP, 10 min incubation at 22° C., average of multiple determinations if made, read-out: FGFR3 Enz FRET IC50. The method, then:
FGFR3 kinase activity was measured by the Invitrogen LanthaScreen™ Assay technology which directly measures the amount of substrate phosphorylation by TR-FRET using a fluorescently-labeled peptide and Europium-labeled antibody. Briefly, […] N-terminal GST-HIS6 fusion protein with a 3C cleavage site recombinant human FGFR3 (amino acids R397-T806) (ProQinase Cat. No. 1068-0000-1) was incubated with 100 nM Alexa Fluor® 647-Poly-GT Peptide Substrate (Life Technologies Cat. No. PV5836) and 25 μM ATP along with test compound in a buffer consisting of 250 mM HEPES, 25 mM MgCl2, 0.05% TritonX-100, pH 7.5, and 2% DMSO. […] After a 10 minute incubation at 22° C., an equal volume of 2 nM LanthaScreen® Eu-PY20 Antibody (Life Technologies Cat. No. PV5691) and 10 mM EDTA were added to quench the kinase reaction and start the detection reaction. After an additional 60 minute incubation at 22° C., the reaction was measured using a PerkinElmer EnVision multimode plate reader via TR-FRET dual wavelength detection, and the percent of control (POC) calculated using a ratiometric emission factor. 100 POC was determined using no test compounds and 0 POC was determined using no enzyme. The POC values were fit to a 4-parameter logistic curve as a function of the concentration of the compound, and the IC50 value is the point where the curve crosses 50 POC.

In experiment [6] the target is FGFR3 (SEQ ID NO: 5, amino acids 449-759) (Homo sapiens (Human), UniProt P22607). Nature of the experiment: LC/MS FGFR3 kobs assay (covalent protein modification). As to conditions: 500 nM FGFR3, 3 μM compound. Type of experiment: binding. The method, then: The LC/MS FGFR1 and FGFR3 kobs assays were conducted as follows. […] At each time point, the reaction was quenched with 20 μL of 0.4% formic acid. The extent of protein modification by each compound was determined by LC/MS on an Agilent Technologies 6520 Q-TOF LC/MS. Protein signals were then automatically deconvoluted using Agilent Masshunter software. Deconvoluted mass signals were exported to Tibco Spotfire data analysis program for further processing and normalization.
Chain of FGFR3 (SEQ ID NO: 5, amino acids 449-759) (P22607 449-759): as above
Data analysis included five steps. First, the signals for the “DMSO Controls” were analyzed to determine the percent of signal associated with unmodified FGFR1 or FGFR3 at each time point. Next, the percent of the signal associated with the covalent modification was determined. Third, the average nonmodified “DMSO Control” signal was used to normalize the modified protein signals at each time point. The percent of unmodified protein was fit to an exponential decay model where A0 is the Percent Unmodified at the start of the reaction, and kobs is the observed rate constant over the time period.
Table EC contains kobs values for compounds tested in these assays, presented as the average of multiple determinations if multiple determinations were made. ND=not determined.

Structures are written as SMILES.

Chain of dephosphorylated FGFR1 (SEQ ID NO: 1, amino acids 458 to 765) (P11362 458-765): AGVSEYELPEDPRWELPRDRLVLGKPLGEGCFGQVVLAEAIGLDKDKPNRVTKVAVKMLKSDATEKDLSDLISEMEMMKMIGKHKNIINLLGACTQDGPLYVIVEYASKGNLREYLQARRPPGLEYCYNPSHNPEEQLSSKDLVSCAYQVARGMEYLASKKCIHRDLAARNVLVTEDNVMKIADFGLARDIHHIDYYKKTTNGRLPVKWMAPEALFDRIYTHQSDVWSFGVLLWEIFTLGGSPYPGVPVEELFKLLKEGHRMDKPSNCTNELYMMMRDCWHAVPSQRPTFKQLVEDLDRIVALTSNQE
Chain of recombinant human FGFR1 catalytic domain (amino acids 308-731) (P11362 other isoform, or with tags, fused parts or gaps): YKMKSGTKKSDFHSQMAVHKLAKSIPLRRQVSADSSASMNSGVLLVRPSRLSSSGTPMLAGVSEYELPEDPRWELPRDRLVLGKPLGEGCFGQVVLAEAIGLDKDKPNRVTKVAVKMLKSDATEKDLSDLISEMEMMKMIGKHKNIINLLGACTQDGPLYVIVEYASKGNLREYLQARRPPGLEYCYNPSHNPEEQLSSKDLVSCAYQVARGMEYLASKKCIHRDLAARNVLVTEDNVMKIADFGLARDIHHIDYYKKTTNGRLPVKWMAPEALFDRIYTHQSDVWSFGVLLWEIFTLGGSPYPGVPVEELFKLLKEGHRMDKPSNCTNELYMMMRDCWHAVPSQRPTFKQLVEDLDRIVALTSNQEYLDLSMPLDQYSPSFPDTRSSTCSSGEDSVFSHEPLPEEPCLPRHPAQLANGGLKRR
Chain of recombinant human FGFR3 (amino acids R397-T806) (P22607 397-806): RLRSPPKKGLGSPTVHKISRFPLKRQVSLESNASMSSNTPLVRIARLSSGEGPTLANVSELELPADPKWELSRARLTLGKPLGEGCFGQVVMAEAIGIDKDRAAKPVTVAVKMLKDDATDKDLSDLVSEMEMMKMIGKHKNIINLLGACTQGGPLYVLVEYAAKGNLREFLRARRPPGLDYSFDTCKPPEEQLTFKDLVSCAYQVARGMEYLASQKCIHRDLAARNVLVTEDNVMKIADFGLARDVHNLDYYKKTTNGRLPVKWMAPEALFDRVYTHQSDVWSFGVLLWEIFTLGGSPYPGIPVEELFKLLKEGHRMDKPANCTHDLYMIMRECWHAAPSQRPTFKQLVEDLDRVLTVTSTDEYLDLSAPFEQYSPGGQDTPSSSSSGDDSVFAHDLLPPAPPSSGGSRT
Chain of recombinant human FGFR2 cytoplasmic domain (amino acids 403-822) (P21802 402-821): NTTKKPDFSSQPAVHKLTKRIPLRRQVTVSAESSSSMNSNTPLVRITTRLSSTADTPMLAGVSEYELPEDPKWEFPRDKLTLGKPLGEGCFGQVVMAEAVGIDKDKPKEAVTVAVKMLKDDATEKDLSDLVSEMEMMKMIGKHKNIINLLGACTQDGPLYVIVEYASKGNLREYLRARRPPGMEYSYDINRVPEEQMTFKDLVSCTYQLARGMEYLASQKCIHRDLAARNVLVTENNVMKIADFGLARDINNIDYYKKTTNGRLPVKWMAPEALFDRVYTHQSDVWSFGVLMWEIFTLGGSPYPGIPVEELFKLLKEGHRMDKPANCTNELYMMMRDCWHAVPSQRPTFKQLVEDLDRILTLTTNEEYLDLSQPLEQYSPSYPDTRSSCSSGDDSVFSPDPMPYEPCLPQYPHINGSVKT

The term IC50 denotes the concentration that gives 50% inhibition. Take `C=CC(=O)N[C@H]1CC[C@H](C(=O)N2CCC(n3cc(-c4cc(OC)c5c(C#N)cnn5c4)cn3)CC2)CC1` [Example 18, N-((1r,4r)-4-(4-(4-(3-cyano-4-methoxypyrazolo[1,5-a]pyridin-6-yl)-1H-pyrazol-1-yl)piperidine-1-carbonyl)cyclohexyl)acryl-amide]: the half-maximal inhibitory concentration (IC50) stood at 131 nM in experiment [1]; 26 nM in experiment [2]; 18 nM in experiment [3]; 4 nM in experiment [4]; 2 nM in experiment [5]. For the same molecule, the “FGFR3 Enz kobs” value in experiment [6] is 0.0004 min⁻¹.
Consider `C=CC(=O)N[C@H]1CC[C@@H](C(=O)N2CCC(n3cc(-c4cc(OC)c5c(C#N)cnn5c4)cn3)CC2)CC1` [Example 20, N-((1s,4s)-4-(4-(4-(3-cyano-4-methoxypyrazolo[1,5-a]pyridin-6-yl)-1H-pyrazol-1-yl)piperidine-1-carbonyl)cyclohexyl)acryl-amide], for which the half-inhibitory concentration (IC50) came out at 93 nM in experiment [1]; 18 nM in experiment [2]; 14 nM in experiment [3]; 3 nM in experiment [4]; 3 nM in experiment [5]. For the same molecule, the “FGFR3 Enz kobs” value in experiment [6] was 0.00051 min⁻¹.
In the case of `C=CC(=O)N1CCC(Oc2cccc(-n3cc(-c4cc(OC)c5c(C#N)cnn5c4)cn3)c2)CC1` [Example 26, 6-(1-(3-((1-acryloylpiperidin-4-yl)oxy)phenyl)-1H-pyrazol-4-yl)-4-methoxypyrazolo[1,5-a]pyridine-3-carbonitrile], the IC50 in experiment [1] came out at 552 nM; in experiment [2] it was 128 nM; in experiment [3], 188 nM; in experiment [4] it was 42 nM; in experiment [5], 58 nM. The “FGFR3 Enz kobs” value in experiment [6] was 0.0007 min⁻¹.
Regarding `C=CC(=O)N[C@H]1C[C@@H](C(=O)N2CCC(n3cc(-c4cc(OC)c5c(C#N)cnn5c4)cn3)CC2)C1` [Example 44, N-((1s,3s)-3-(4-(4-(3-cyano-4-methoxypyrazolo[1,5-a]pyridin-6-yl)-1H-pyrazol-1-yl)piperidine-1-carbonyl)cyclobutyl)acryl-amide], the figures for the concentration for half-maximal inhibition (IC50) in experiment [2], in experiment [4] and in experiment [5] were 20 nM, 3 nM and 2 nM, respectively. Further, the “FGFR3 Enz kobs” value in experiment [6] is 0.001 min⁻¹.
For `C=CC(=O)N[C@H]1C[C@H](C(=O)N2CCC(n3cc(-c4cc(OC)c5c(C#N)cnn5c4)cn3)CC2)C1` [Example 45, N-((1r,3r)-3-(4-(4-(3-cyano-4-methoxypyrazolo[1,5-a]pyridin-6-yl)-1H-pyrazol-1-yl)piperidine-1-carbonyl)cyclobutyl)acryl-amide] the same measures were 44 nM, 9 nM, 8 nM and 0.00116 min⁻¹.
As for `C=CC(=O)NC1C2CC1C2C(=O)N1CCC(n2cc(-c3cc(OC)c4c(C#N)cnn4c3)cn2)CC1` (stereo not shown) [Example 46, N-(4-(4-(4-(3-cyano-4-methoxypyrazolo[1,5-a]pyridin-6-yl)-1H-pyrazol-1-yl)piperidine-1-carbonyl)bicyclo[1.1.1]pentan-2-yl)acrylamide], the half-maximal inhibitory concentration (IC50) in experiment [1] is 23 nM; in experiment [2], 4 nM; in experiment [3] it was 12 nM; in experiment [4], 2 nM; in experiment [5] it was 3 nM. Moreover, in experiment [6], the “FGFR3 Enz kobs” value was 0.00153 min⁻¹.
As for `C=CC(=O)N1CCC(C(=O)N2CC[C@@H](n3cc(-c4cc(OC)c5c(C#N)cnn5c4)cn3)C2)CC1` [Example 53, (R)-6-(1-(1-(1-acryloylpiperidine-4-carbonyl)pyrrolidin-3-yl)-1H-pyrazol-4-yl)-4-methoxypyrazolo[1,5-a]pyridine-3-carbonitrile], the results for the IC50 in experiment [2], in experiment [4] and in experiment [5] were 31 nM, 7 nM and 3 nM, respectively. In experiment [6], the “FGFR3 Enz kobs” value turned out to be 0.00112 min⁻¹.
Regarding `C=CC(=O)N[C@H]1CC[C@H](C(=O)N2CC[C@@H](n3cc(-c4cc(OC)c5c(C#N)cnn5c4)cn3)C2)CC1` [Example 54, N-((1R,4r)-4-((R)-3-(4-(3-cyano-4-methoxypyrazolo[1,5-a]pyridin-6-yl)-1H-pyrazol-1-yl)pyrrolidine-1-carbonyl)cyclohexyl)acryl-amide], the IC50 in experiment [1] is 142 nM; in experiment [2] it was 25 nM; in experiment [3], 47 nM; in experiment [4], 16 nM; in experiment [5], 16 nM. Moreover, in experiment [6], the “FGFR3 Enz kobs” value was found to be 0.00025 min⁻¹.
Consider `C=CC(=O)N1CCC(C(=O)N2CC[C@H](n3cc(-c4cc(OC)c5c(C#N)cnn5c4)cn3)C2)CC1` [Example 62, (S)-6-(1-(1-(1-acryloylpiperidine-4-carbonyl)pyrrolidin-3-yl)-1H-pyrazol-4-yl)-4-methoxypyrazolo[1,5-a]pyridine-3-carbonitrile], for which the half-maximal inhibitory concentration (IC50) in experiment [2] came out at 64 nM; in experiment [4] it was 5 nM; in experiment [5], 2 nM. Further, the “FGFR3 Enz kobs” value in experiment [6] was 0.00106 min⁻¹.
